Article PMC8269059, “Glycyrrhizin Derivatives Suppress Cancer Chemoresistance by Inhibiting Progesterone Receptor Membrane Component 1” (Cancers, 2021)
Entries after “also recorded” stand apart in the source; their conditions may differ.

Legend:
[1] = molecular target: T1, PGRMC1 Q149F (Homo sapiens, UniProt O00264, Q149F); assay: ITC binding of GL to PGRMC1 mutant Q149F
T1 construct: human PGRMC1 intracellular domain residues 43-195; GST (N, cleaved yes); made in house; host or cells: E. coli BL21 (DE3)
From the text: (§1) Bacterial expression vectors pGEX-PGRMC1 (human PGRMC1 intracellular domain residues 43-195) and mammalian FLAG-tagged expression vector pCMV-FLAG-PGRMC1 (full-length) were constructed as described previously. Expression vectors for PGRMC1 point mutants were generated by site-directed mutagenesis with PCR. For construction of HMGB1 expression vector, human HMGB1 full-length cDNA was cloned from cDNA library of HCT116 cells using the primers (Forward: 5′-[…]-3′, Reverse: 5′-[…]-[…]-3′), digested with Bam HI and Sal I, and then ligated into pGEX6P1.
(§2) ITC experiments were performed at 298 K with ITC-Buffer (50 mM phosphate [pH 7.0]) using a MicroCal iTC200 (Malvern Panalytical, Malvern, UK). GL derivatives were dissolved in […] and titrated into 100 μM apo-PGRMC1, heme-bound-PGRMC1, or HMGB1 protein. Titration was performed by injecting 2 µL of the syringe solution at intervals of 120 s. Binding isotherms were analyzed using SEDPHAT [35]. The binding of AG205 to apo- or heme-PGRMC1 (100 μM) was analyzed using a concentration of 3 mM containing 1% DMSO. The binding affinities of GL derivatives for HMGB1 (80 µM) were analyzed using a concentration of 3 mM.

[2] = molecular target: T2, PGRMC1-PGRMC1 binding (Homo sapiens, UniProt O00264); assay: Co-immunoprecipitation of endogenous PGRMC1 with FLAG-PGRMC1 in HCT116 cells; type: cell-based; conditions: HCT116, co-IP of endogenous PGRMC1 with FLAG-PGRMC1, GL 12 hr
T2 construct: mammalian FLAG-tagged expression vector pCMV-FLAG-PGRMC1 (full-length); Endogenous PGRMC1 (25 kDa) was co-immunoprecipitated; expressed in transfected cells; host or cells: HCT116
Description: An expression vector of pCMV-3xFLAG-PGRMC1 or an empty vector was transfected into HCT116 cells or HuH7 cells using the transfection reagent Lipofectamine 2000 (Invitrogen). The cells were incubated overnight with either GL or GlucoGL. Cells were then lysed with NP40 lysis buffer (20 mM Tris-HCl [pH 7.5], 150 mM NaCl, and 1% NP40). The lysates were incubated with 10 μL of equilibrated anti-FLAG (M2) agarose for 60 min at room temperature. Bound proteins were washed three times and subjected to SDS-PAGE and visualized through western blotting using antibodies against FLAG, EGFR, and LDLR. For analysis of the endogenous PGRMC1-binding with FLAG-PGRMC1, HCT116 cells (1 × 10^7 cells) were treated with vehicle or 250 μM SA and/or 10 μM hemin for 48 h, and the cell lysates were co-immunoprecipitated with anti-FLAG (M2) agarose. Bound proteins (endogenous PGRMC1 and FLAG-tagged PGRMC1) were visualized through western blotting using antibody against PGRMC1.

[3] = molecular target: T3, apo-PGRMC1 (Homo sapiens, UniProt O00264); assay: ITC binding to apo-PGRMC1; conditions: apo-monomer form
T3 construct: human PGRMC1 intracellular domain residues 43-195; GST (N, cleaved yes); made in house; host or cells: E. coli BL21 (DE3)
From the text: as §1
Expression vectors (pGEX-PGRMC1 (residues 43-195) or pGEX-HMGB1) were transformed into BL21 (DE3) competent E. coli cells, and the cells incubated in LB medium with ampicillin at 37 °C until the OD600 reached 0.8. Protein expression was induced by adding 1 mM isopropyl-β-thiogalactopyranoside (IPTG) and incubating at 37 °C for 4 h. […]
ITC experiments were performed at 298 K with ITC-Buffer (50 mM phosphate [pH 7.0]) using a MicroCal iTC200 (Malvern Panalytical, Malvern, UK). […] Binding isotherms were analyzed using SEDPHAT [35]. The binding of AG205 to apo- or heme-PGRMC1 (100 μM) was analyzed using a concentration of 3 mM containing 1% DMSO. […]

[4] = molecular target: T4, PGRMC1 G108W (Homo sapiens, UniProt O00264, G108W); assay: ITC binding of GL to PGRMC1 mutant G108W
T4 construct: human PGRMC1 intracellular domain residues 43-195; GST (N, cleaved yes); made in house; host or cells: E. coli BL21 (DE3)
From the text: as §1, §2

[5] = molecular target: T5, PGRMC1 A147W (Homo sapiens, UniProt O00264, A147W); assay: ITC binding of GL to PGRMC1 mutant A147W
T5 construct: human PGRMC1 intracellular domain residues 43-195; GST (N, cleaved yes); made in house; host or cells: E. coli BL21 (DE3)
From the text: as §1, §2

[6] = molecular target: T6, PGRMC1 F128W (Homo sapiens, UniProt O00264, F128W); assay: ITC binding of GL to PGRMC1 mutant F128W
T6 construct: human PGRMC1 intracellular domain residues 43-195; GST (N, cleaved yes); made in house; host or cells: E. coli BL21 (DE3)
From the text: as §1, §2

[7] = molecular target: T7, PGRMC1 T146W (Homo sapiens, UniProt O00264, T146W); assay: ITC binding of GL to PGRMC1 mutant T146W
T7 construct: human PGRMC1 intracellular domain residues 43-195; GST (N, cleaved yes); made in house; host or cells: E. coli BL21 (DE3)
From the text: as §1, §2

T5 sequence (O00264 43-195 A147W): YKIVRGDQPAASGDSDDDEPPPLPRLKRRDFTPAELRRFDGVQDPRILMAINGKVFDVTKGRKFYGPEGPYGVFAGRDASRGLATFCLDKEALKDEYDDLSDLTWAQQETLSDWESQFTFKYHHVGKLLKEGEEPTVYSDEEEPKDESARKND
T6 sequence (O00264 43-195 F128W): as the sequence (O00264 43-195 A147W) above, with F86W, W105A counted along it
T4 sequence (O00264 43-195 G108W): as the sequence (O00264 43-195 A147W) above, with G66W, W105A counted along it
T1 sequence (O00264 43-195 Q149F): as the sequence (O00264 43-195 A147W) above, with W105A, Q107F counted along it
T7 sequence (O00264 43-195 T146W): as the sequence (O00264 43-195 A147W) above, with T104W, W105A counted along it
T3 sequence (O00264 43-195): as the sequence (O00264 43-195 A147W) above, with W105A counted along it
T2 sequence (O00264 whole entry): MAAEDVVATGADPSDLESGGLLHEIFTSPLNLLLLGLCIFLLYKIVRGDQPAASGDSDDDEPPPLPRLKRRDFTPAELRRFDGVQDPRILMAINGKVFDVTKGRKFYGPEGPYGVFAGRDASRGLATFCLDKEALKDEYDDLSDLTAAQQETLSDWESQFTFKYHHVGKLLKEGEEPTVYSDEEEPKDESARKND
T2 sequence (O00264 whole entry): as above

CC1(C)[C@@H](O[C@H]2O[C@H](C(=O)O)[C@@H](O)[C@H](O)[C@H]2O[C@@H]2O[C@H](C(=O)O)[C@@H](O)[C@H](O)[C@H]2O)CC[C@]2(C)[C@H]3C(=O)C=C4[C@@H]5C[C@@](C)(C(=O)O)CC[C@]5(C)CC[C@@]4(C)[C@]3(C)CC[C@@H]12 [Glycyrrhizin (GL), Glycyrrhizin]
Kd [1]: 403 µM
TΔS [1]: −10.62 K･kcal/mol
ΔH [1]: -14.37 kcal/mol
PGRMC1-PGRMC1 binding [2]: did not affect
Binding to apo-PGRMC1 [3]: No Binding; also recorded: not to the apo-monomer form
Kd [4]: 185 µM
TΔS [4]: 1.58 K･kcal/mol
ΔG [4]: -5.09 kcal/mol
ΔH [4]: -3.51 kcal/mol
Kd [5]: 158 µM
TΔS [5]: 2.10 K･kcal/mol
ΔG [5]: -5.19 kcal/mol
ΔH [5]: -3.09 kcal/mol
Kd [6]: 137 µM
TΔS [6]: 0.38 K･kcal/mol
ΔG [6]: -5.27 kcal/mol
ΔH [6]: -4.90 kcal/mol
Kd [7]: 97.9 µM
TΔS [7]: 2.64 K･kcal/mol
ΔH [7]: -2.17 kcal/mol
